Patent publication US10787452B2 (Vertex Pharmaceuticals Incorporated, priority 2012, dated 2020)

System: HCT116 colorectal cancer cells
Assay: Cisplatin sensitization assay (96 h cell viability MTS);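 further: compound concentration needed to lower the Cisplatin-alone IC50 by a set fold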
Format: cell-based
Conditions: 96 h MTS, compound plus Cisplatin
Protocol: Compounds can be screened for their ability to sensitize HCT116 colorectal cancer cells to Cisplatin using a 96 h cell viability (MTS) assay. […] Compounds and Cisplatin are then both added simultaneously to the cell media in 2-fold serial dilutions from a top final concentration of 10 μM as a full matrix of concentrations in a final cell volume of 200 μl, and the cells are then incubated at 37° C. in 5% CO2. After 96 h, 40 μl of MTS reagent (Promega G358a) is added to each well and the cells are incubated for 1 h at 37° C. in 5% CO2.

Question: With `CN1CCN(C(=O)c2cnc(-c3ccncc3NC(=O)c3c(N)nn4cc(F)cnc34)c(Cl)c2)CC1` [I-C-46, 2-amino-N-(3-chloro-5-(4-methylpiperazine-1-carbonyl)-[2,4′-bipyridin]-3′-yl)-6-fluoropyrazolo[1,5-a]pyrimidine-3-carboxamide] as the compound, how does the “Cisplatin Sensitization Assay” value read?
Answer: The value was “+ (Compounds with a Cisplatin sensitization value >0.2 μM but <5 μM are marked with “+.”)”.

Question: How did the “Cisplatin Sensitization Assay” value turn out when `Nc1nn2cc(F)cnc2c1C(=O)Nc1cnccc1C1CCN(S(=O)(=O)C2CC2)CC1` [I-C-47, 2-amino-N-(4-(1-(cyclopropylsulfonyl)piperidin-4-yl)pyridin-3-yl)-6-fluoropyrazolo[1,5-a]pyrimidine-3-carboxamide] was run?
Answer: Its value is “+++ (Compounds with a Cisplatin sensitization value of <0.02 μM are marked with “+++.”)”.

Question: Which “Cisplatin Sensitization Assay” value does the source give for `Nc1nn2cc(F)cnc2c1C(=O)Nc1cnccc1-c1ccc(C(=O)N2CCN3CCC2CC3)cc1` [I-C-48, N-(4-(4-(1,4-diazabicyclo[3.2.2]nonane-4-carbonyl)phenyl)pyridin-3-yl)-2-amino-6-fluoropyrazolo[1,5-a]pyrimidine-3-carboxamide] here?
Answer: Its value is “+++ (Compounds with a Cisplatin sensitization value of <0.02 μM are marked with “+++.”)”.

Question: With `Nc1nn2cc(F)cnc2c1C(=O)Nc1cnccc1-c1ccc(C(=O)N2CCN(C3COC3)CC2)cc1` [I-C-49, 2-amino-6-fluoro-N-(4-(4-(4-(oxetan-3-yl)piperazine-1-carbonyl)phenyl)pyridin-3-yl)pyrazolo[1,5-a]pyrimidine-3-carboxamide] as the compound, how does the “Cisplatin Sensitization Assay” value read?
Answer: Its value is “+++ (Compounds with a Cisplatin sensitization value of <0.02 μM are marked with “+++.”)”.

Question: With `Nc1nn2cc(F)cnc2c1C(=O)Nc1cnccc1-c1ccc(C(=O)N2CCN(C3COC3)CC2)cc1F` [I-C-51, 2-amino-6-fluoro-N-(4-(2-fluoro-4-(4-(oxetan-3-yl)piperazine-1-carbonyl)phenyl)pyridin-3-yl)pyrazolo[1,5-a]pyrimidine-3-carboxamide] as the compound, how does the “Cisplatin Sensitization Assay” value read?
Answer: The value was “++ (Compounds with a Cisplatin sensitization value >0.02 μM but <0.2 μM are marked with “++.”)”.

Question: With `Nc1nn2cc(F)cnc2c1C(=O)Nc1cnccc1-c1ccc(C(=O)N2CCN(C3COC3)CC2)nc1` [I-C-52, 2-amino-6-fluoro-N-(6-(4-(oxetan-3-yl)piperazine-1-carbonyl)-[3,4′-bipyridin]-3′-yl)pyrazolo[1,5-a]pyrimidine-3-carboxamide] as the compound, how does the “Cisplatin Sensitization Assay” value read?
Answer: The value was “++ (Compounds with a Cisplatin sensitization value >0.02 μM but <0.2 μM are marked with “++.”)”.

Question: Which “Cisplatin Sensitization Assay” value does the source give for `Nc1nn2cc(F)cnc2c1C(=O)Nc1cnccc1-c1ccc(C(=O)N2CCC(N3CCCC3)CC2)nc1` [I-C-53, 2-amino-6-fluoro-N-(6-(4-(pyrrolidin-1-yl)piperidine-1-carbonyl)-[3,4′-bipyridin]-3′-yl)pyrazolo[1,5-a]pyrimidine-3-carboxamide] here?
Answer: The value was “+++ (Compounds with a Cisplatin sensitization value of <0.02 μM are marked with “+++.”)”.

Question: Which “Cisplatin Sensitization Assay” value does the source give for `Nc1nn2cc(F)cnc2c1C(=O)Nc1cnccc1-c1ccc(C(=O)N2CCC(N3CCC3)CC2)nc1` [I-C-54, 2-amino-N-(6-(4-(azetidin-1-yl)piperidine-1-carbonyl)-[3,4′-bipyridin]-3′-yl)-6-fluoropyrazolo[1,5-a]pyrimidine-3-carboxamide] here?
Answer: The value was “+++ (Compounds with a Cisplatin sensitization value of <0.02 μM are marked with “+++.”)”.

Question: Which “Cisplatin Sensitization Assay” value does the source give for `Cn1ccnc1-c1ccncc1NC(=O)c1c(N)nn2cc(F)cnc12` [I-C-55, 2-amino-6-fluoro-N-(4-(1-methyl-1H-imidazol-2-yl)pyridin-3-yl)pyrazolo[1,5-a]pyrimidine-3-carboxamide] here?
Answer: The value was “+ (Compounds with a Cisplatin sensitization value >0.2 μM but <5 μM are marked with “+.”)”.

Question: How did the “Cisplatin Sensitization Assay” value turn out when `Cn1cncc1-c1ccncc1NC(=O)c1c(N)nn2cc(F)cnc12` [I-C-56, 2-amino-6-fluoro-N-(4-(1-methyl-1H-imidazol-5-yl)pyridin-3-yl)pyrazolo[1,5-a]pyrimidine-3-carboxamide] was run?
Answer: The value was “+++ (Compounds with a Cisplatin sensitization value of <0.02 μM are marked with “+++.”)”.
